The values that follow come from patent publication US8895504B2, “Amylin derivatives” (priority 2008, dated 2014).

pEC50: −log10 of the molar value. *1 amine or outer side, *2 acyl side, *3 side chain or, on linkers, in order; H or OH if unused. Where a SMILES comes first, the peptide text is derived from it. Bridges are numbered along the chain shown (N, C = ends). The star is where a group is joined. C20 diacid = O=C(O)CCCCCCCCCCCCCCCCCCC(=O)*; γGlu = O=C(O)[C@H](CCC(=O)[*:2])N[*:1]; AEEA = NCCOCCOCC(=O)O

The experiment deals with T1, Amylin 3(a) receptor (human calcitonin receptor (CTa) and RAMP-3) (Homo sapiens, UniProt O60896+P30988).
T1 construct: expressed in transfected cells; host or cells: BHK570 cells, stably transfected with a CRE-luciferase reporter
T1 sequence (O60896 24-148): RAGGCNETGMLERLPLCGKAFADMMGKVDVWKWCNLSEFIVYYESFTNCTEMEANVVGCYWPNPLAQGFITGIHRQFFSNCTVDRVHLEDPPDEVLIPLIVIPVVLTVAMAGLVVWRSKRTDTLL
T1 sequence (P30988 25-474): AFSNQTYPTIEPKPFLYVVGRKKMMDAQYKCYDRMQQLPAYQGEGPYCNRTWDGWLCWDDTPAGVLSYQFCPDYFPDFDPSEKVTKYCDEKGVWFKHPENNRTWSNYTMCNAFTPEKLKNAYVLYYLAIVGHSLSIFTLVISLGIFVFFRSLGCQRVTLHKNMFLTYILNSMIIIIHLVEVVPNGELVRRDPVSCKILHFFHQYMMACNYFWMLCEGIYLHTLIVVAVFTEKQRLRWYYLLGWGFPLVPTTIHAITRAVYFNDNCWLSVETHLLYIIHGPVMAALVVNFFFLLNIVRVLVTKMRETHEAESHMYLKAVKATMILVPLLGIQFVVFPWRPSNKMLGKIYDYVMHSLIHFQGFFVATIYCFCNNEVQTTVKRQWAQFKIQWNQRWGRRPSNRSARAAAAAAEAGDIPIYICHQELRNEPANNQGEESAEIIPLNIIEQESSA
Description: Luciferase assay (III), BHK Amylin 3(a)//CRE-luc cells. The format is cell-based. To be noted: BHK cells with Amylin 3(a) receptor and CRE luciferase reporter, 4 hours incubation; read-out: Potency Luciferase. From the text: It has previously been published (Poyner D R et al 2002, Pharmacological Reviews 54(2) 233-246) that activation of Amylin receptors (coexpression of Calcitonin receptor and receptor activity modifying peptides RAMPs) by Amylin leads to an increase in the intracellular concentration of cAMP. Consequently, transcription is activated at promoters containing multiple copies of the cAMP response element (CRE). It is thus possible to measure Amylin activity by use of a CRE luciferase reporter gene introduced into BHK cells also expressing an Amylin receptor.
2. Construction of an Amylin 3(a)/CRE-luc Cell Line
A BHK570 cell line stably transfected with the human calcitonin receptor (CTa) and a CRE-responsive luciferase reportergene. The cell line was further transfected with RAMP-3, using standard methods. This turns the Calcitonin receptor into an Amylin 3(a) receptor. Methotrexate, Neomycin, and Hygromycin are selection markers for luciferase, the Calcitonin receptor, and RAMP-3, respectively.
3. Amylin Luciferase Assay
To perform activity assays, BHK Amylin 3(a)//CRE-luc cells were seeded in white 96 well culture plates at a density of about 20,000 cells/well. The cells were in 100 μl growth medium (DMEM with 10% FBS, 1% Pen/Strep, 1 mM Na-pyruvate, 250 nM Methotrexate, 500 μg/ml Neomycin, and 400 μg/ml Hygromycin). After incubation overnight at 37° C. and 5% CO2, the growth medium was replaced by 50 μl/well assay medium (DMEM (without phenol red), Glumamax™, 10% FBS, and 10 mM Hepes, pH 7,4). Further, 50 μl/well of standard or sample in assay buffer were added. After 4 hours incubation at 37° C. and 5% CO2, the assay medium with standard or sample were removed and replaced by 100 μl/well PBS. Further, 100 μl/well LucLite™ was added. The plates were sealed and incubated at room temperature for 30 minutes. Finally, luminescence was measured on a TopCounter (Packard) in SPC (single photon counting) mode.

Consider `CC[C@H](C)[C@H](NC(=O)[C@@H]1CCCN1C(=O)CNC(=O)[C@H](Cc1ccccc1)NC(=O)[C@H](CC(N)=O)NC(=O)[C@H](CC(N)=O)NC(=O)[C@H](CO)NC(=O)[C@H](CO)NC(=O)[C@H](Cc1c[nH]cn1)NC(=O)[C@H](CO)NC(=O)[C@H](CC(C)C)NC(=O)[C@H](Cc1ccccc1)NC(=O)[C@H](CC(N)=O)NC(=O)[C@H](C)NC(=O)[C@H](CC(C)C)NC(=O)[C@H](CCCNC(=N)N)NC(=O)[C@H](CCC(N)=O)NC(=O)[C@@H](NC(=O)[C@H](C)NC(=O)[C@@H]1CSSC[C@H](NC(=O)CC[C@H](NC(=O)CCCCCCCCCCCCCCCCCCC(=O)O)C(=O)O)C(=O)N[C@@H](CC(N)=O)C(=O)N[C@@H]([C@@H](C)O)C(=O)N[C@@H](C)C(=O)N[C@@H]([C@@H](C)O)C(=O)N1)[C@@H](C)O)C(=O)N[C@@H](CC(C)C)C(=O)N1CCC[C@H]1C(=O)N1CCC[C@H]1C(=O)N[C@H](C(=O)N[C@@H](CC(N)=O)C(=O)N[C@H](C(=O)NCC(=O)N[C@@H](CO)C(=O)N[C@@H](CC(N)=O)C(=O)N[C@H](C(=O)N[C@@H](Cc1ccc(O)cc1)C(N)=O)[C@@H](C)O)C(C)C)[C@@H](C)O` [Example 11, N-alpha-[(S)-4-Carboxy-4-(19-carboxynonadecanoylamino)butyryl]-[Ser17]-pramlintide (2-37)] ({C20 diacid-γGlu}-CNTATCATQRLANFLSHSSNNFGPILPPTNVGSNTY-NH2; disulfide 1-6), for which the pEC50 was 10.00.
Under `CC[C@H](C)[C@H](NC(=O)[C@@H]1CCCN1C(=O)CNC(=O)[C@H](Cc1ccccc1)NC(=O)[C@H](CC(N)=O)NC(=O)[C@H](CC(N)=O)NC(=O)[C@H](CO)NC(=O)[C@H](CO)NC(=O)[C@H](Cc1c[nH]cn1)NC(=O)[C@H](C)NC(=O)[C@H](CC(C)C)NC(=O)[C@H](Cc1ccccc1)NC(=O)[C@H](CC(N)=O)NC(=O)[C@H](C)NC(=O)[C@H](CC(C)C)NC(=O)[C@H](CCCNC(=N)N)NC(=O)[C@H](CCC(N)=O)NC(=O)[C@@H](NC(=O)[C@H](C)NC(=O)[C@@H]1CSSC[C@H](NC(=O)CC[C@H](NC(=O)CCCCCCCCCCCCCCCCCCC(=O)O)C(=O)O)C(=O)N[C@@H](CC(N)=O)C(=O)N[C@@H]([C@@H](C)O)C(=O)N[C@@H](C)C(=O)N[C@@H]([C@@H](C)O)C(=O)N1)[C@@H](C)O)C(=O)N[C@@H](CC(C)C)C(=O)N1CCC[C@H]1C(=O)N1CCC[C@H]1C(=O)N[C@H](C(=O)N[C@@H](CC(N)=O)C(=O)N[C@H](C(=O)NCC(=O)N[C@@H](CO)C(=O)N[C@@H](CC(N)=O)C(=O)N[C@H](C(=O)N[C@@H](Cc1ccc(O)cc1)C(N)=O)[C@@H](C)O)C(C)C)[C@@H](C)O` [Example 12, N-alpha-[(S)-4-Carboxy-4-(19-carboxynonadecanoylamino)butyryl]-[Ala17]-pramlintide (2-37)] ({C20 diacid-γGlu}-CNTATCATQRLANFLAHSSNNFGPILPPTNVGSNTY-NH2; disulfide 1-6) stands 10.00; under `CC[C@H](C)[C@H](NC(=O)[C@@H]1CCCN1C(=O)CNC(=O)[C@H](Cc1ccccc1)NC(=O)[C@H](CC(N)=O)NC(=O)[C@H](CC(N)=O)NC(=O)[C@H](CO)NC(=O)[C@H](CO)NC(=O)[C@H](Cc1c[nH]cn1)NC(=O)CNC(=O)[C@H](CC(C)C)NC(=O)[C@H](Cc1ccccc1)NC(=O)[C@H](CC(N)=O)NC(=O)[C@H](C)NC(=O)[C@H](CC(C)C)NC(=O)[C@H](CCCNC(=N)N)NC(=O)[C@H](CCC(N)=O)NC(=O)[C@@H](NC(=O)[C@H](C)NC(=O)[C@@H]1CSSC[C@H](NC(=O)CC[C@H](NC(=O)CCCCCCCCCCCCCCCCCCC(=O)O)C(=O)O)C(=O)N[C@@H](CC(N)=O)C(=O)N[C@@H]([C@@H](C)O)C(=O)N[C@@H](C)C(=O)N[C@@H]([C@@H](C)O)C(=O)N1)[C@@H](C)O)C(=O)N[C@@H](CC(C)C)C(=O)N1CCC[C@H]1C(=O)N1CCC[C@H]1C(=O)N[C@H](C(=O)N[C@@H](CC(N)=O)C(=O)N[C@H](C(=O)NCC(=O)N[C@@H](CO)C(=O)N[C@@H](CC(N)=O)C(=O)N[C@H](C(=O)N[C@@H](Cc1ccc(O)cc1)C(N)=O)[C@@H](C)O)C(C)C)[C@@H](C)O` [Example 13, N-alpha-[(S)-4-Carboxy-4-(19-carboxynonadecanoylamino)butyryl]-[Gly17]-pramlintide (2-37)] ({C20 diacid-γGlu}-CNTATCATQRLANFLGHSSNNFGPILPPTNVGSNTY-NH2; disulfide 1-6), 9.40.
Take `CC[C@H](C)[C@H](NC(=O)[C@@H]1CCCN1C(=O)CNC(=O)[C@H](Cc1ccccc1)NC(=O)[C@H](CC(N)=O)NC(=O)[C@H](CC(N)=O)NC(=O)[C@H](CO)NC(=O)[C@H](CO)NC(=O)[C@H](Cc1c[nH]cn1)NC(=O)[C@H](CCCNC(=N)N)NC(=O)[C@H](CC(C)C)NC(=O)[C@H](Cc1ccccc1)NC(=O)[C@H](CC(N)=O)NC(=O)[C@H](C)NC(=O)[C@H](CC(C)C)NC(=O)[C@H](CCCNC(=N)N)NC(=O)[C@H](CCC(N)=O)NC(=O)[C@@H](NC(=O)[C@H](C)NC(=O)[C@@H]1CSSC[C@H](NC(=O)CC[C@H](NC(=O)CCCCCCCCCCCCCCCCCCC(=O)O)C(=O)O)C(=O)N[C@@H](CC(N)=O)C(=O)N[C@@H]([C@@H](C)O)C(=O)N[C@@H](C)C(=O)N[C@@H]([C@@H](C)O)C(=O)N1)[C@@H](C)O)C(=O)N[C@@H](CC(C)C)C(=O)N1CCC[C@H]1C(=O)N1CCC[C@H]1C(=O)N[C@H](C(=O)N[C@@H](CC(N)=O)C(=O)N[C@H](C(=O)NCC(=O)N[C@@H](CO)C(=O)N[C@@H](CC(N)=O)C(=O)N[C@H](C(=O)N[C@@H](Cc1ccc(O)cc1)C(N)=O)[C@@H](C)O)C(C)C)[C@@H](C)O` [Example 14, N-alpha-[(S)-4-Carboxy-4-(19-carboxynonadecanoylamino)butyryl]-[Arg17]-pramlintide (2-37)] ({C20 diacid-γGlu}-CNTATCATQRLANFLRHSSNNFGPILPPTNVGSNTY-NH2; disulfide 1-6): the pEC50 is 9.70.
Under `CC[C@H](C)[C@H](NC(=O)[C@@H]1CCCN1C(=O)CNC(=O)[C@H](Cc1ccccc1)NC(=O)[C@H](CC(N)=O)NC(=O)[C@H](CC(N)=O)NC(=O)[C@H](CO)NC(=O)[C@H](CO)NC(=O)[C@H](Cc1c[nH]cn1)NC(=O)[C@@H]1CCCN1C(=O)[C@H](CC(C)C)NC(=O)[C@H](Cc1ccccc1)NC(=O)[C@H](CC(N)=O)NC(=O)[C@H](C)NC(=O)[C@H](CC(C)C)NC(=O)[C@H](CCCNC(=N)N)NC(=O)[C@H](CCC(N)=O)NC(=O)[C@@H](NC(=O)[C@H](C)NC(=O)[C@@H]1CSSC[C@H](NC(=O)CC[C@H](NC(=O)CCCCCCCCCCCCCCCCCCC(=O)O)C(=O)O)C(=O)N[C@@H](CC(N)=O)C(=O)N[C@@H]([C@@H](C)O)C(=O)N[C@@H](C)C(=O)N[C@@H]([C@@H](C)O)C(=O)N1)[C@@H](C)O)C(=O)N[C@@H](CC(C)C)C(=O)N1CCC[C@H]1C(=O)N1CCC[C@H]1C(=O)N[C@H](C(=O)N[C@@H](CC(N)=O)C(=O)N[C@H](C(=O)NCC(=O)N[C@@H](CO)C(=O)N[C@@H](CC(N)=O)C(=O)N[C@H](C(=O)N[C@@H](Cc1ccc(O)cc1)C(N)=O)[C@@H](C)O)C(C)C)[C@@H](C)O` [Example 15, N-alpha-[(S)-4-Carboxy-4-(19-carboxynonadecanoylamino)butyryl]-[Pro17]-pramlintide (2-37)] ({C20 diacid-γGlu}-CNTATCATQRLANFLPHSSNNFGPILPPTNVGSNTY-NH2; disulfide 1-6) stands 8.10; under `CC[C@H](C)[C@H](NC(=O)[C@@H]1CCCN1C(=O)CNC(=O)[C@H](Cc1ccccc1)NC(=O)[C@H](CC(N)=O)NC(=O)[C@H](CC(N)=O)NC(=O)[C@H](CO)NC(=O)[C@H](CO)NC(=O)[C@H](Cc1c[nH]cn1)NC(=O)[C@H](Cc1c[nH]cn1)NC(=O)[C@H](CC(C)C)NC(=O)[C@H](Cc1ccccc1)NC(=O)[C@H](CC(N)=O)NC(=O)[C@H](C)NC(=O)[C@H](CC(C)C)NC(=O)[C@H](CCCNC(=N)N)NC(=O)[C@H](CCC(N)=O)NC(=O)[C@@H](NC(=O)[C@H](C)NC(=O)[C@@H]1CSSC[C@H](NC(=O)COCCOCCNC(=O)CC[C@H](NC(=O)CCCCCCCCCCCCCCCCCCC(=O)O)C(=O)O)C(=O)N[C@@H](CC(N)=O)C(=O)N[C@@H]([C@@H](C)O)C(=O)N[C@@H](C)C(=O)N[C@@H]([C@@H](C)O)C(=O)N1)[C@@H](C)O)C(=O)N[C@@H](CC(C)C)C(=O)N1CCC[C@H]1C(=O)N1CCC[C@H]1C(=O)N[C@H](C(=O)N[C@@H](CC(N)=O)C(=O)N[C@H](C(=O)NCC(=O)N[C@@H](CO)C(=O)N[C@@H](CC(N)=O)C(=O)N[C@H](C(=O)N[C@@H](Cc1ccc(O)cc1)C(N)=O)[C@@H](C)O)C(C)C)[C@@H](C)O` [Example 16, N-alpha-[2-(2-{2-[4-(S)-Carboxy-4-(19-carboxynonadecanoylamino)butyrylamino]ethoxy}ethoxy)acetyl]-[His17]-pramlintide (2-37)] ({C20 diacid-γGlu-AEEA}-CNTATCATQRLANFLHHSSNNFGPILPPTNVGSNTY-NH2; disulfide 1-6), 10.00.
